According to publication PMC8129133, “Polymer-free corticosteroid dimer implants for controlled and sustained drug delivery” (Nature Communications, 2021):
Values joined by “and” are separate entries in the source; they are usually repeats but may differ in a detail not shown here. Equal entries are not always repeated.

Assay: In vitro release
Format: physicochemical
Details: for 30G x 6 mm - Cumulative Dex Release / 23G x 6 mm - Cumulative Dex Release: single samples and AVG; for Dex Release: Fig 5h implants, 1.5 ml FBS; for Cumulative Dex (%) / Cumulative Dex-TEG (%) / Cumulative Dex-TEG-Dex (%): Fig 4d pellet
How it was run: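 Melt-pressed crystalline drug dimer pellets (1 mm × 1 mm), alone or blended with a second drug, were incubated at 37 °C with 115 rpm shaking in PBS pH 7.4, 100% FBS, 1% FBS/PBS or 3.6% BSA/PBS. Medium was fully replaced at 24 h, then every 3–4 days; drug was quantified by HPLC after acetonitrile protein precipitation.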

Compound: C[C@@H]1C[C@H]2[C@@H]3CCC4=CC(=O)C=C[C@]4(C)[C@@]3(F)[C@@H](O)C[C@]2(C)[C@@]1(O)C(=O)COC(=O)OCCOCCOCCOC(=O)OCC(=O)[C@@]1(O)[C@H](C)C[C@H]2[C@@H]3CCC4=CC(=O)C=C[C@]4(C)[C@@]3(F)[C@@H](O)C[C@@]21C [Dex-TEG-Dex]
- 30G x 6 mm - Cumulative Dex Release (Fig 4e, Day 24, mean): 14632.22 ng
- 23G x 6 mm - Cumulative Dex Release, % (Fig 4e, Day 28, AVG): 5.83%
- 30G x 6 mm - Cumulative Dex Release, % (Fig 4e, Day 28, AVG): 26.07%
- 23G x 6 mm - Cumulative Dex Release (Fig 4e, Day 28): 22513.24 ng and 19328.26 ng and 15619.66 ng and 21703.43 ng and 22527.37 ng and 19996.59 ng
- 30G x 6 mm - Cumulative Dex Release (Fig 4e, Day 28): 17080.41 ng and 16856.88 ng and 15635.65 ng and 15175.33 ng and 17376.10 ng
- 23G x 6 mm - Cumulative Dex Release (Fig 4e, Day 28, mean): 20281.43 ng
- 30G x 6 mm - Cumulative Dex Release (Fig 4e, Day 28, mean): 16424.87 ng
- Cumulative Dex Release (Fig 5e extruded rods, 4.4 ml PBS, Day 3, samples and avg): 1097.22 ng and 914.62 ng and 1001.18 ng
- Cumulative Dex Release (Fig 5e extruded rods, 4.4 ml PBS, Day 3, samples and avg, mean): 1004.34 ng
- Cumulative Dex Release (Fig 5e extruded rods, 4.4 ml PBS, Day 7, samples and avg): 2505.34 ng and 2182.65 ng and 1890.99 ng
- Cumulative Dex Release (Fig 5e extruded rods, 4.4 ml PBS, Day 7, samples and avg, mean): 2192.99 ng
- Cumulative Dex Release (Fig 5e extruded rods, 4.4 ml PBS, Day 10, samples and avg): 3527.54 ng and 3009.52 ng and 2686.37 ng
- Cumulative Dex Release (Fig 5e extruded rods, 4.4 ml PBS, Day 10, samples and avg, mean): 3074.48 ng
- Cumulative Dex Release (Fig 5e extruded rods, 4.4 ml PBS, Day 14, samples and avg): 4834.31 ng and 3361.72 ng and 3917.67 ng
- Cumulative Dex Release (Fig 5e extruded rods, 4.4 ml PBS, Day 14, samples and avg, mean): 4037.90 ng
- Cumulative Dex Release (%) (Fig 5e extruded rods, PBS, Day 3, avg): 5.68%
- Cumulative Dex Release (%) (Fig 5e extruded rods, PBS, Day 7, avg): 12.40%
- Cumulative Dex Release (%) (Fig 5e extruded rods, PBS, Day 10, avg): 17.39%
- Cumulative Dex Release (%) (Fig 5e extruded rods, PBS, Day 14, avg): 22.83%
- Cumulative Dex Release (Fig 5g pellet 1x1 mm, 2 ml FBS, Day 1, samples and avg): 7893.42 ng and 9312.84 ng and 6181.88 ng
- Cumulative Dex Release (Fig 5g pellet 1x1 mm, 2 ml FBS, Day 1, samples and avg, mean): 7796.05 ng
- Cumulative Dex Release (Fig 5g pellet 1x1 mm, 2 ml FBS, Day 4, samples and avg): 30339.61 ng and 45405.22 ng and 23002.55 ng
- Cumulative Dex Release (Fig 5g pellet 1x1 mm, 2 ml FBS, Day 4, samples and avg, mean): 32915.79 ng
- Cumulative Dex Release (Fig 5g pellet 1x1 mm, 2 ml FBS, Day 7, samples and avg (Dex-TEG-Dex)): 54914.64 ng and 66482.50 ng and 47540.80 ng
- Cumulative Dex Release (Fig 5g pellet 1x1 mm, 2 ml FBS, Day 7, samples and avg (Dex-TEG-Dex), mean): 56312.65 ng
- Cumulative Dex Release (Fig 5g pellet 1x1 mm, 2 ml FBS, Day 12, samples and avg): 107363.57 ng and 105953.49 ng and 95651.85 ng
- Cumulative Dex Release (Fig 5g pellet 1x1 mm, 2 ml FBS, Day 12, samples and avg, mean): 102989.64 ng
- Cumulative Dex Release (Fig 5g pellet 1x1 mm, 2 ml FBS, Day 14, samples and avg (Dex-TEG-Dex)): 134750.54 ng and 130454.95 ng and 117349.61 ng
- Cumulative Dex Release (Fig 5g pellet 1x1 mm, 2 ml FBS, Day 14, samples and avg (Dex-TEG-Dex), mean): 127518.37 ng
- Cumulative Dex Release (%) (Fig 5g pellet, FBS, Day 1, avg): 1.53%
- Cumulative Dex Release (%) (Fig 5g pellet, FBS, Day 4, avg): 6.45%
- Cumulative Dex Release (%) (Fig 5g pellet, FBS, Day 7, avg (Dex-TEG-Dex)): 11.03%
- Cumulative Dex Release (%) (Fig 5g pellet, FBS, Day 12, avg): 20.18%
- Cumulative Dex Release (%) (Fig 5g pellet, FBS, Day 14, avg (Dex-TEG-Dex)): 24.99%
- Dex Release (Surface Area 0.4 mm2): 4010.80 ng/day and 4214.70 ng/day and 4298.12 ng/day
- Dex Release (Surface Area 2.23 mm2): 36784.29 ng/day and 23408.43 ng/day and 28616.37 ng/day
- Dex Release (Surface Area 5.3 mm2): 79250.12 ng/day and 77804.43 ng/day and 51184.45 ng/day
- Cumulative Dex (%) (3.6% BSA, Day 1): 0.09%
- Cumulative Dex-TEG (%) (3.6% BSA, Day 1): 0.00388% and 0.000233% and 0.00% and 0.00648%
- Cumulative Dex-TEG-Dex (%) (3.6% BSA, Day 1): 0.27% and 0.25% and 0.32% and 0.24% and 0.26% and 0.273%
- Cumulative Dex (%) (3.6% BSA, Day 3): 0.26%
- Cumulative Dex-TEG (%) (3.6% BSA, Day 3): 0.0221% and 0.0216% and 0.0328% and 0.0218% and 0.0264% and 0.0252%
- Cumulative Dex-TEG-Dex (%) (3.6% BSA, Day 3): 0.51% and 0.48% and 0.61% and 0.44% and 0.4979%
- Cumulative Dex-TEG (%) (3.6% BSA, Day 7): 0.08% and 0.09% and 0.10% and 0.12%
- Cumulative Dex-TEG-Dex (%) (3.6% BSA, Day 7): 0.69% and 0.68% and 0.90% and 0.62% and 0.66% and 0.7212%
- Cumulative Dex (%) (3.6% BSA, Day 10): 1.32%
- Cumulative Dex-TEG (%) (3.6% BSA, Day 10): 0.18% and 0.14% and 0.15% and 0.16% and 0.20%
- Cumulative Dex-TEG-Dex (%) (3.6% BSA, Day 10): 0.89% and 1.18% and 0.82% and 0.87% and 0.9318%
- Cumulative Dex (%) (3.6% BSA, Day 14): 1.97%
- Cumulative Dex-TEG (%) (3.6% BSA, Day 14): 0.28% and 0.21% and 0.25% and 0.22%
- Cumulative Dex-TEG-Dex (%) (3.6% BSA, Day 14): 1.13% and 1.12% and 1.43% and 0.98% and 1.06% and 1.102%
- Cumulative Dex-TEG (%) (100% FBS, Day 1): 0.00%
- Cumulative Dex-TEG-Dex (%) (100% FBS, Day 1): 0.045% and 0.05% and 0.07%
- Cumulative Dex-TEG (%) (100% FBS, Day 3): 0.02% and 0.0246% and 0.00%
- Cumulative Dex-TEG-Dex (%) (100% FBS, Day 3): 0.11% and 0.16% and 0.18%
- Cumulative Dex-TEG (%) (100% FBS, Day 7): 0.06% and 0.0546% and 0.04%
- Cumulative Dex-TEG-Dex (%) (100% FBS, Day 7): 0.22% and 0.28% and 0.36%
- Cumulative Dex-TEG (%) (100% FBS, Day 10): 0.0647% and 0.0546% and 0.06%
- Cumulative Dex-TEG-Dex (%) (100% FBS, Day 10): 0.29% and 0.38% and 0.50%
- Cumulative Dex-TEG (%) (100% FBS, Day 14): 0.08% and 0.10%
- Cumulative Dex-TEG-Dex (%) (100% FBS, Day 14): 0.39% and 0.49% and 0.68%
- Cumulative Dex Release (Fig 5d coating, 4 ml PBS, Day 3, samples and avg): 5791.09 ng and 5024.11 ng
- Cumulative Dex Release (Fig 5d coating, 4 ml PBS, Day 3, samples and avg, mean): 5535.43 ng
- Cumulative Dex Release (Fig 5d coating, 4 ml PBS, Day 7, samples and avg): 17637.28 ng and 18646.47 ng and 15578.55 ng
- Cumulative Dex Release (Fig 5d coating, 4 ml PBS, Day 7, samples and avg, mean): 17287.43 ng
- Cumulative Dex Release (Fig 5d coating, 4 ml PBS, Day 10, samples and avg): 20320.09 ng and 21014.00 ng and 17829.42 ng
- Cumulative Dex Release (Fig 5d coating, 4 ml PBS, Day 10, samples and avg, mean): 19721.17 ng
- Cumulative Dex Release (Fig 5d coating, 4 ml PBS, Day 14, samples and avg): 28452.49 ng and 28863.83 ng and 25840.72 ng
- Cumulative Dex Release (Fig 5d coating, 4 ml PBS, Day 14, samples and avg, mean): 27719.01 ng
- Cumulative Dex Release (%) (Fig 5d coating, PBS, Day 3, avg): 0.71%
- Cumulative Dex Release (%) (Fig 5d coating, PBS, Day 7, avg): 2.21%
- Cumulative Dex Release (%) (Fig 5d coating, PBS, Day 10, avg): 2.52%
- Cumulative Dex Release (%) (Fig 5d coating, PBS, Day 14, avg): 3.55%
